Entries after “also recorded” stand apart in the source; their conditions may differ.
Legend:
[1] = system: cell lines (14837, 14838) engineered to express oncogenic KRAS; assay: Dose response assay on cell lines with doxycycline-inducible mutant KRAS; format: cell-based; settings: with doxycycline (KRAS expressed) versus without
Procedure: Some of those alterations are present in the NCI60 cell line and represented in the chart. Each circle represent cell lines with the resistance conferring genomic alteration listed on the x-axis. […] FIG. 5F: two cell lines (14837, 14838) engineered to express oncogenic KRAS in the presence of doxycycline (Dox) were treated with escalating doses of AOH1996 in a dose response assay.
(§1) Studies that explored acquisition of resistance to Osi have identified many genomic alterations that contribute to resistance. These alterations are present in some of the cell lines in the NCI60 cell line panel. The growth inhibitory effects of AOH1996 on the NCI60 panel has been measured through services offered by the NCI's Development Therapeutics Program.

CRC cell lines = assay: IC50 on colorectal cancer cell lines of the NCI60 panel; format: cell-based; settings: IC50 determined by the NCI Developmental Therapeutics Program
Procedure: FIGS. 7A-7B show EGFR targeted antibodies used in the treatment of colorectal cancer (CRC). […] CRC with KRAS and BRAF activating mutations are often difficult to treat but cell lines with mutant KRAS and BRAF are responsive to AOH1996. FIG. 7A: IC50 of CRC cell lines relative to the rest of the NCI60 cell lines. FIG. 7B: AOH1996 IC50 on CRC cell lines classified by presence and type of Ras-Raf-Mek-Erk pathway mutation. IC50s for the NCI60 cell lines was determined by the NCI Developmental Therapeutics Program. Mutation status of CRC cell lines was found in the Cellosaurus database.

tumors = assay: In vivo tumor suppression and tolerability
EGFR = biological target: T1, EGFR (Homo sapiens, UniProt P00533); assay: Immunofluorescence imaging of EGFR in MDA-MB-468 cells; format: cell-based; settings: MDA-MB-468, serum starved, 30 minutes drug, then 15 minutes EGF
T1 construct: endogenous in cells; host or cells: MDA-MB-468
Procedure: (§2) Serum starved cells were treated for 30 minutes with DMSO, AOH1996, Osi, or AOH1996 and Osi followed by 15 minutes of EGF stimulation.

NCI60 cell line panel = assay: Growth inhibition on the NCI60 cell line panel (NCI Developmental Therapeutics Program); format: cell-based
Text: as §1

PCNA = biological target: T2, PCNA (Homo sapiens, UniProt P12004); assay: Immunofluorescence imaging of PCNA in MDA-MB-468 cells; format: cell-based; settings: MDA-MB-468, serum starved, 30 minutes drug, then 15 minutes EGF
T2 construct: endogenous in cells; host or cells: MDA-MB-468
Procedure: as §2

T2 sequence (P12004 whole entry): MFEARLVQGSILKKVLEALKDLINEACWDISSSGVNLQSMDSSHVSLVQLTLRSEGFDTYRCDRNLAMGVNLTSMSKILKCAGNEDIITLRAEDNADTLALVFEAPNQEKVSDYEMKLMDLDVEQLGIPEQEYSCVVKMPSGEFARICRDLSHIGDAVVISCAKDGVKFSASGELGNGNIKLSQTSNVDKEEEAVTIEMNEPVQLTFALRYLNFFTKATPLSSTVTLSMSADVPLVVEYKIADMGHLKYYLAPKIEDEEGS
T1 sequence (P00533 25-1210): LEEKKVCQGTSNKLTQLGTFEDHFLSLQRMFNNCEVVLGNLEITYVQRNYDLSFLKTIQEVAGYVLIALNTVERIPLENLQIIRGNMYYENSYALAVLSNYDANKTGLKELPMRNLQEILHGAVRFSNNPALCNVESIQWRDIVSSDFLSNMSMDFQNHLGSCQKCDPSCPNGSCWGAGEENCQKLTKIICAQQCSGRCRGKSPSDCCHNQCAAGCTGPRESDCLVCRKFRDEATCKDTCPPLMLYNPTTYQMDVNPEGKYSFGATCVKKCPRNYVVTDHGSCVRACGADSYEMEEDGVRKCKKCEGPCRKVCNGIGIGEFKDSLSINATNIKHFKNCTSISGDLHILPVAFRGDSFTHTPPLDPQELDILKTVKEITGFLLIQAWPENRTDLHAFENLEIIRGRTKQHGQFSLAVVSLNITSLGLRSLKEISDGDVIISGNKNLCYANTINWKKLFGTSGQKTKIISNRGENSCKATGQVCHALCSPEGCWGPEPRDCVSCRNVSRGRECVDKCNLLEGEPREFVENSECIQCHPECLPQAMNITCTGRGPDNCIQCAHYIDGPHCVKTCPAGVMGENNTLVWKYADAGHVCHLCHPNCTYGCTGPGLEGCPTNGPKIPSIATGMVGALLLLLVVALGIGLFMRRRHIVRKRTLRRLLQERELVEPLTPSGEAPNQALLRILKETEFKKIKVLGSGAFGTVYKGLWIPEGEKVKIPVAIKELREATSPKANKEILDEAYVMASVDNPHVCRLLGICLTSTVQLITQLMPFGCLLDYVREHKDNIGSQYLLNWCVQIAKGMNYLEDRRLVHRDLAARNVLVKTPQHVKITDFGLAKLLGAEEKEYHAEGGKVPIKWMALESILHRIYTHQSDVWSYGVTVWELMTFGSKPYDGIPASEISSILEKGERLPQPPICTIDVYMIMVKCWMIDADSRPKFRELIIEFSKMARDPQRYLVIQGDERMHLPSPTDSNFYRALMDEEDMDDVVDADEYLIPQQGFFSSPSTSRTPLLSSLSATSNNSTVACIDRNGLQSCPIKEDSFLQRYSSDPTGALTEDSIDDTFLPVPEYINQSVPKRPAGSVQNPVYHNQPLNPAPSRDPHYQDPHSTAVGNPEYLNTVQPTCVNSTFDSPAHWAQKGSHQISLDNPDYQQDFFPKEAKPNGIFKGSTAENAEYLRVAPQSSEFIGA

Row | Compound | sensitivity with mutant KRAS expressed versus expression suppressed [1] | response of CRC cell lines with mutant KRAS and BRAF (CRC cell lines) | sensitivity of CRC cell lines relative to the rest of the NCI60 cell lines (CRC cell lines) | dose with no discernable side effects (tumors) | route of administration (tumors) | effect on tumors in vivo (tumors; oral) | EGFR localization and signal (EGFR) | effect of genomic alterations conferring resistance to osimertinib on sensitivity to AOH1996 (NCI60 cell line panel; NCI60 cell lines carrying the alterations) | sensitivity of BRAF and KRAS mutant cell lines to AOH1996 (NCI60 cell line panel; NCI60 cell lines with BRAF V600E and activating KRAS mutations) | PCNA localization (PCNA)
1 | COc1cccc(Oc2ccccc2NC(=O)CNC(=O)c2cccc3ccccc23)c1 [AOH1996] | sensitive to AOH1996 when mutant KRAS is expressed but not when expression was suppressed; also recorded: more sensitive | responsive | particularly sensitive | more than 6 times its effective dose | orally administrable | effectively kills and suppresses tumors | accumulated EGFR at the cell membrane; also recorded: EGFR was localized to the cell membrane | did not confer resistance | noticeable skew in distribution towards AOH1996 sensitivity; also recorded: greater sensitivity | lost punctate staining of PCNA in the nucleus; also recorded: Nuclear PCNA foci were absent
2 | C=CC(=O)Nc1cc(Nc2nccc(-c3cn(C)c4ccccc34)n2)c(OC)cc1N(C)CCN(C)C [osimertinib, reference compound] | – | – | – | – | – | – | – | – | – | less apparent

Source: patent US20240245634A1, “PCNA INHIBITORS AND EGFR INHIBITORS FOR CANCER TREATMENT” (City of Hope, priority 2021, published 2024)
